Results reported in patent US20230210834A1, “RNA METHYLTRANSFERASE INHIBITOR, SCREENING METHOD THEREFOR, ANTI-CANCER AGENT EFFICACY ASSESSMENT MARKER, AND KIT FOR EFFECTIVELY PREDICTING FTSJ1 INHIBITOR” (National University Corporation Okayama University, priority 2019, published 2023).
Read-outs that look alike come from different tables or passages of the source.

Legend:
[1] = test system: polyglutamine luciferase reporter; assay: Screening: polyglutamine luciferase reporter assay in NUGC3 cells (luminescence % of DMSO); assay type: cell-based, human
Method: (§1) Human gastric cancer cell line NUGC3 was cultured in a DMEM medium (high glucose with L-glutamine and phenol red, produced by FUJIFILM Wako Pure Chemical Corporation) containing 10% fetal bovine serum (produced by Thermo Fisher Scientific Inc.) and penicillin-streptomycin (produced by FUJIFILM Wako Pure Chemical Corporation) (this medium is simply referred to below as “DMEM+10% FBS+1×P/S”). Then, the NUGC3 cells were seeded in a 60-mm culture dish (produced by BioLite) so that the cells were 80% confluent after 24 hours. Subsequently, 5 μg of a reporter plasmid and 15 μL of a lipofection reagent (transIT-LT1, produced by Mirus Bio LLC) were mixed in 500 μL of Opti-MEM medium (produced by Thermo Fisher Scientific, Inc.) to form a complex, which was added to the medium in which the NUGC3 cells were cultured in the 60-mm culture dish. For use as the reporter plasmid, 5 μg of a polyglutamine luciferase reporter was introduced (in the polyglutamine luciferase reporter, a Renilla luciferase expressed in the IRES was located as an internal standard downstream of the sequence of a firefly luciferase sequence to which polyglutamine was added). Alternatively, a YAP/TAZ activity reporter was used by simultaneously introducing 3 μg of 8×GTIIC plasmid and 2 μg of a Renilla luciferase reporter as an internal standard. After another 24 hours, the cells were exfoliated with a 0.05 w/v % trypsin-0.53 mmol/l EDTA-4Na solution (produced by FUJIFILM Wako Pure Chemical Corporation), and then seeded in a 96-well plate (produced by BioLite) so that the cells were 80% confluent after 24 hours. Twenty-four hours after seeding in the 96-well plate, the medium in each well was replaced with 100 μL of a medium (DMEM+10% FBS+an antibiotic) containing 10 μM or 5 μM of a compound for evaluation. After another 24 hours, the medium containing the compound was removed, and the 96-well plate was transferred on ice. Each well was washed with 100 μL of phosphate buffer (PBS, produced by FUJIFILM Wako Pure Chemical Corporation). Thereafter, 20 μL of Passive Lysis Buffer (1×) contained in a Dual-Luciferase Reporter Assay System (produced by Promega Corporation) was added. The plate was then gently shaken for 15 minutes at room temperature to lyse the cells. After confirming that the cells were lysed, 10 μL of the lysate was transferred from each well to each corresponding well of a white 96-well plate (produced by Greiner Bio-one). To each well of the white 96-well plate was added 100 μL of a mixture of a Luciferase Assay Buffer II and Luciferase Assay Substrate contained in the Dual-Luciferase Reporter Assay System (produced by Promega Corporation), whereby the luminescence of the firefly luciferase was induced, and the luminescence intensity was detected with a microluminometer (produced by Berthold Japan K.K.). Subsequently, 100 μL of a mixture of Stop & Glo Buffer and Stop & Glo Substrate contained in the Dual-Luciferase Reporter Assay System (produced by Promega Corporation) was added, whereby the luminescence of firefly luciferase was quenched while the luminescence of Renilla luciferase was induced, and the luminescence intensity was detected with a microluminometer (produced by Berthold Japan K.K.) in a manner similar to the above. The ratio of the luminescence intensity of the firefly luciferase and the luminescence intensity of the Renilla luciferase was calculated, and the luminescence intensity (%) of the wells containing each compound was calculated with the luminescence intensity of the well containing DMSO (dimethyl sulfoxide, used as a solvent for the compound liquids) taken as 100%. […] Unless otherwise specified, the measured values in the table represent the results obtained by evaluation with the addition of 10 μM of each compound for evaluation.

YAP/TAZ = assay: Screening: YAP/TAZ activity reporter (8xGTIIC plasmid) assay in NUGC3 cells (luminescence % of DMSO); assay type: cell-based, human
Method: as §1

[2] = NUGC3 cells, luminescence relative to DMSO, concentration not given
[3] = polyglutamine luciferase reporter, NUGC3 cells, luminescence relative to DMSO, concentration not given
[4] = YAP/TAZ activity reporter (8×GTIIC), NUGC3 cells, luminescence relative to DMSO, concentration not given

SMILES | Polyglutamine [1, 3] | 8×GTIIC (YAP/TAZ; [4]) | other results
CC(=O)c1cccc(C2CC(c3ccc(C)cc3)=NC2S(=O)(=O)c2ccc(C)cc2)c1 (stereo not shown) [PVZF0095] |  |  | Polyglutamine [1, 2]: 47.01%; 8×GTIIC (YAP/TAZ; [2]): 66.76%
Cc1ccc(C2=NC(S(=O)(=O)c3ccccc3)C(c3ccc(C)cc3)C2)cc1 (stereo not shown) [PVZF0096] |  |  | Polyglutamine [1, 2]: 73.68%; 8×GTIIC (YAP/TAZ; [2]): 103.6%
Cc1ccccc1C1=CC(C2=CC3CCCCC3C=C2)=CC1 (stereo not shown) [PVZF0101] |  |  | activity at 5 µM ([1]; Homo sapiens, NUGC-3, NUGC3 cells, luminescence relative to DMSO, 5 μM): 13%; activity at 10 µM ([1]; Homo sapiens, NUGC-3, NUGC3 cells, luminescence relative to DMSO, 10 μM): 10%; activity at 5 µM (YAP/TAZ; Homo sapiens, NUGC-3, NUGC3 cells, luminescence relative to DMSO, 5 μM, read-out: 8×GTIIC): 16.1%; activity at 10 µM (YAP/TAZ; Homo sapiens, NUGC-3, NUGC3 cells, luminescence relative to DMSO, 10 μM, read-out: 8×GTIIC): 12.5%
CC(C)c1cc(C(C)C)c(S(=O)(=O)CC2CCCC2)c(C(C)C)c1 [PVZF2002] | 36.92% | 38.2% | 
CCCCCCS(=O)(=O)c1c(C(C)C)cc(C(C)C)cc1C(C)C [PVZF2003] | 41.74% | 75.26% | 
CC(C)c1cc(C(C)C)c(S(=O)(=O)CCc2ccccc2)c(C(C)C)c1 [PVZF2006] | 41.3% | 58.43% | 
CC(C)c1cc(C(C)C)c(S(=O)(=O)NCC2CCCNC2)c(C(C)C)c1 (stereo not shown) [PVZF2008] | 64.94% | 70.12% | 
O=S(=O)(CC1CCCC1)c1ccc2ccccc2c1 [PVZF2010] | 33.13% | 24.49% | 
CCCCCCS(=O)(=O)c1ccc2ccccc2c1 [PVZF2011] | 28.85% | 36.2% | 
O=S(=O)(CC1CCCCC1)c1ccc2ccccc2c1 [PVZF2012] | 33.76% | 34.08% | 
O=S(=O)(CCc1ccccc1)c1ccc2ccccc2c1 [PVZF2014] | 40.32% | 59.08% | 
O=S(=O)(CCC1CCCCC1)c1ccc2ccccc2c1 [PVZF2015] | 51.29% | 51.25% | 
O=S(=O)(CCCC1CCCCC1)c1ccc2ccccc2c1 [PVZF2017] | 66.66% | 58.91% | 
CC1(C)CC(CS(=O)(=O)c2ccc3ccccc3c2)CC(C)(C)C1 [PVZF2018] | 61.19% | 73.29% | 
CC(C)(C)c1ccc(S(=O)(=O)CC2CCCC2)cc1 [PVZF2019] | 31.45% | 36.82% | 
CCCCCCS(=O)(=O)c1ccc(C(C)(C)C)cc1 [PVZF2020] | 36.76% | 45.04% | 
CC(C)(C)c1ccc(S(=O)(=O)CC2CCCCC2)cc1 [PVZF2021] | 32.95% | 44.55% | 
CC(C)(C)c1ccc(S(=O)(=O)CCc2ccccc2)cc1 [PVZF2023] | 58.32% | 66.96% | 
CC(C)(C)c1ccc(S(=O)(=O)CCC2CCCCC2)cc1 [PVZF2024] | 63.4% | 55.45% | 
CC(C)(C)c1ccc(S(=O)(=O)CCCC2CCCCC2)cc1 [PVZF2026] | 31.89% | 34.4% | 
O=S(=O)(CC1CCCC1)c1ccc(-c2ccccc2)cc1 [PVZF2028] | 42.32% | 40.24% | 
CCCCCCS(=O)(=O)c1ccc(-c2ccccc2)cc1 [PVZF2029] | 49.5% | 49.28% | 

SMILES | Polyglutamine [1, 3] | 8×GTIIC (YAP/TAZ; [4]) | other results
O=S(=O)(CC1CCCCC1)c1ccc(-c2ccccc2)cc1 [PVZF2030] | 50.36% | 49.29% | 
O=S(=O)(CCc1ccccc1)c1ccc(-c2ccccc2)cc1 [PVZF2032] | 73.08% | 76.99% | 
O=S(=O)(CCC1CCCCC1)c1ccc(-c2ccccc2)cc1 [PVZF2033] | 67.7% | 69.36% | 
O=S(=O)(NCCC1=CCCCC1)c1ccc(-c2ccccc2)cc1 [PVZF2035, N-(2-(cyclohexy-1-en-1-yl)ethyl)-[1,1′-biphenyl]-4-sulfonamide] |  |  | Polyglutamine [1]: 58.85%; 8×GTIIC (YAP/TAZ): 71.12%
CC1(C)CC(CS(=O)(=O)c2ccc(-c3ccccc3)cc2)CC(C)(C)C1 [PVZF2036] | 79.76% | 70.46% | 
CCC(C)(C)c1ccc(S(=O)(=O)CC2CCCC2)cc1 [PVZF2037] | 51.06% | 43.28% | 
CCCCCCS(=O)(=O)c1ccc(C(C)(C)CC)cc1 [PVZF2038] | 58.2% | 56.84% | 
CCC(C)(C)c1ccc(S(=O)(=O)CC2CCCCC2)cc1 [PVZF2039] | 53.6% | 60% | 
CCC(C)(C)c1ccc(S(=O)(=O)CCc2ccccc2)cc1 [PVZF2041] | 78.87% | 79.61% | 
CCC(C)(C)c1ccc(S(=O)(=O)CCC2CCCCC2)cc1 [PVZF2042] | 34.02% | 35.98% | 
CCC(C)(C)c1ccc(S(=O)(=O)CCCC2=CCCCC2)cc1 [PVZF2044] | 45.42% | 55.05% | 
CC1(C)CC(CS(=O)(=O)c2ccc(C(C)(C)C)cc2)CC(C)(C)S1 [PVZF2045] | 65.16% | 66.26% | 
CCCCCCS(=O)(=O)c1ccccc1 [PVZF2047] | 48.95% | 63.56% | 
O=S(=O)(CC1CCCCC1)c1ccccc1 [PVZF2048] | 73.33% | 69.86% | 
O=S(=O)(CCc1ccccc1)c1ccccc1 [PVZF2050] | 49.43% | 39.57% | 
O=S(=O)(CCC1CCCCC1)c1ccccc1 [PVZF2051] | 38.06% | 35.1% | 
O=S(=O)(CC1CCCC1)c1ccc(C2CCCCC2)cc1 [PVZF2064] | 64% | 75.47% | 
O=S(=O)(CCc1ccccc1)c1ccc(C2CCCCC2)cc1 [PVZF2068] | 53.21% | 74.24% | 
O=S(=O)(CCCC1CCCCC1)c1ccc(C2CCCCC2)cc1 [PVZF2071] | 63.89% | 70.27% | 
CC1(C)CC(CS(=O)(=O)c2ccc(C3CCCCC3)cc2)CC(C)(C)S1 [PVZF2072] | 80.1% | 83.58% | 
CC(C)c1cc(C(C)C)c(S(=O)(=O)CC(c2ccccc2)c2ccc(-c3ccccc3)cc2)c(C(C)C)c1 (stereo not shown) [PVZF2083] | 69% | 108.4% | 
